We go through one compound from patent publication US12029816B2, “Compositions and methods of making brittle-matrix particles through blister pack freezing” (BOARD OF REGENTS, THE UNIVERSITY OF TEXAS SYSTEM, priority 2010, dated 2024).

The conditions of this data set: pH 7.4.

Protocol: HFA-exposed TFF ITZ powder (1 mg) was added to 50 mL of dissolution media to yield an initial drug loading of 20 μg/mL. Sample aliquots (1.5 mL) were taken from the dissolution vessels at various time points. The aliquots were filtered immediately using a 0.2 μm syringe filter. […] TFF ITZ powder that had been previously exposed to HFA 227 (1 mg) was added to the dissolution media (50 mL) to achieve an initial loading of 20 μg ITZ/mL. All samples were filtered with 0.2 μm pore size filters.

The compound `CCC(C)n1ncn(-c2ccc(N3CCN(c4ccc(OCC5COC(Cn6cncn6)(c6ccc(Cl)cc6Cl)O5)cc4)CC3)cc2)c1=O` (stereo not shown) [crystalline ITZ, itraconazole] returned an equilibrium solubility of 1.4 µg/mL.
